Test results from ChEMBL document CHEMBL3045508, “Pharmacological Characteristics of Insect Nicotinic Acetyicholine Receptor with Its Ion Channel and the Comparison of the Effect of Nicotinoids and Neonicotinoids” (J Pestic Sci, 1995).
Calls of active or inactive are those of the source. The rule behind the calls is not given here.

Key:
[1] = Displacement of [3H]alpha-BGT from nAChR in Apis mellifera (honeybee) head homogenates; type: tissue-based
Musca domestica [2] = experiment: Insecticidal activity against 3 to 5 day old female Musca domestica (house fly) assessed as induction of anesthetic effect applied topically on notum measured after 24 hr; type: functional, organism-based
Musca domestica [3] = experiment: Insecticidal activity against 3 to 5 day old female Musca domestica (house fly) assessed as compound level causing insect mortality per female applied topically on notum measured after 24 hr; type: functional
[4] = Displacement of [3H]PCP from nAChR in Apis mellifera (honeybee0 head homogenates; type: tissue-based
Apis mellifera = experiment: Displacement of [3H]PCP from nAChR in Apis mellifera (honeybee) head homogenates at 1000 uM; type: tissue-based
Musca domestica [5] = experiment: Insecticidal activity against 3 to 5 day old female Musca domestica (house fly) assessed as compound level causing insect mortality per female applied through intrathoracic injection measured after 24 hr; type: functional
Musca domestica [6] = experiment: Insecticidal activity against 3 to 5 day old female Musca domestica (house fly) assessed as induction of convulsions and paralysis applied through intrathoracic injection measured after 24 hr; type: functional, organism-based
Musca domestica [7] = experiment: Insecticidal activity against 3 to 5 day old female Musca domestica (house fly) assessed as induction of leg tremors at >2 ug/female fly applied topically on notum measured after 24 hr; type: functional, organism-based

For `c1ccc(C2(N3CCCCC3)CCCCC2)cc1` [PHENCYCLIDINE], the IC50 [1] was 2.55 µM, the Activity (Musca domestica [2]) was “Active” and the LD50 (Musca domestica [3]) was 18.4 µg. It also gave an IC50 [4] of 0.029 µM.
In the case of `C[N+](C)(C)CCOC(N)=O` [CARBACHOL], the IC50 [1] is reported as 90.1 µM, the inhibition (Apis mellifera) is reported as 8.1% and the IC50 [4] is reported as > 1000 µM.
Work on `CNC1(C)C2CCC(C2)C1(C)C` (stereo unspecified) [MECAMYLAMINE] yielded an IC50 [1] of 346 µM and an IC50 [4] of 8.98 µM.
For `O=[N+]([O-])C=C1NCCCS1`, the IC50 [1] was 1360 µM and the IC50 [4] was 231 µM.
In the case of `CSC(C)N1CCN/C1=C\[N+](=O)[O-]` (stereo unspecified), the IC50 [1] is reported as 249 µM and the IC50 [4] is reported as 336 µM.
In the case of `O=c1cccc2n1C[C@@H]1CNC[C@H]2C1` [CYTISINICLINE], the IC50 [1] is reported as 0.267 µM, the inhibition (Apis mellifera) is reported as 12.6% and the IC50 [4] is reported as > 1000 µM.
`CN1[C@@H](CC(=O)c2ccccc2)CCC[C@H]1C[C@H](O)c1ccccc1` [LOBELINE] gave an IC50 [1] of 4.6 µM and an IC50 [4] of 158 µM.
With `O=[N+]([O-])/N=C1\NCCN1Cc1ccc(Cl)nc1` [IMIDACLOPRID] the IC50 [1] was 1.95 µM, the LD50 (Musca domestica [5]) was 0.553 µg and the Activity (Musca domestica [6]) was “Active”. The IC50 [4] was 386 µM.
In the case of `COc1cc2c3cc1Oc1cc(ccc1O)C[C@@H]1c4c(cc(OC)c(O)c4Oc4ccc(cc4)C[C@@H]3N(C)CC2)CC[N+]1(C)C`, the IC50 [1] is reported as 3.35 µM and the IC50 [4] is reported as 0.636 µM.
Work on `C/C(=N\C#N)N(C)Cc1ccc(Cl)nc1` [ACETAMIPRID] yielded an IC50 [1] of 8.83 µM and an IC50 [4] of 277 µM.
With `O=C1N(Cc2ccccc2)C2C[S+]3CCCC3C2N1Cc1ccccc1` (stereo unspecified) [TRIMETHAPHAN CAMSYLATE] the IC50 [1] was 0.798 µM and the IC50 [4] was 440 µM.
For `CCC[C@H]1CCCCN1` [CONIINE], the IC50 [1] was 166 µM and the IC50 [4] was 5.56 µM.
In the case of `c1csc(C2(N3CCCCC3)CCCCC2)c1` [TENOCYCLIDINE], the IC50 [1] is reported as 1.38 µM, the Activity (Musca domestica [2]) is reported as “Active” and the LD50 (Musca domestica [3]) is reported as 25 µg. The IC50 [4] was 0.082 µM.
Work on `CN1CCC[C@H]1c1cccnc1` [NICOTINE] yielded an IC50 [1] of 1.55 µM, an LD50 (Musca domestica [3]) of 14.8 µg and an IC50 [4] of 1.14 µM.
For `CN1CCC[C@@H]1c1cccnc1` [R-NICOTINE], the IC50 [1] was 22.1 µM and the IC50 [4] was 35 µM.
In the case of `c1cncc(C2CCCCN2)c1` (stereo not drawn) [DL-ANABASINE], the IC50 [1] is reported as 1.98 µM and the IC50 [4] is reported as 4.99 µM.
`CCN(Cc1ccc(Cl)nc1)/C(=C/[N+](=O)[O-])NC` [NITENPYRAM] gave an IC50 [1] of 61.3 µM and an IC50 [4] of 27.6 µM.
For `C[N+]1(C)CCN(c2ccccc2)CC1` [DIMETHYLPHENYLPIPERAZINIUM IODIDE], the IC50 [1] was 7.35 µM and the IC50 [4] was 385 µM.
Compound `CNC1(c2ccccc2Cl)CCCCC1=O` (stereo unspecified) [KETAMINE] has an IC50 [1] of 237 µM and an IC50 [4] of 83.2 µM.
Compound `CN(C)CCCN1c2ccccc2Sc2ccc(Cl)cc21` [CHLORPROMAZINE] has an IC50 [1] of 151 µM and an IC50 [4] of 5.8 µM.
With `CN(C)C1CSSC1` [NEREISTOXIN] the IC50 [1] was 228 µM, the Activity (Musca domestica [2]) was “Active” and the LD50 (Musca domestica [3]) was 0.49 µg. The Activity (Musca domestica [7]) was “Active” and the IC50 [4] was 30.7 µM.
`O=[N+]([O-])/C=C1\NCCN1Cc1ccc(Cl)nc1` showed an IC50 [1] of 0.026 µM and an IC50 [4] of 953 µM.
